Source: ChEMBL document CHEMBL4184210, “Optimization of novel monobactams with activity against carbapenem-resistant Enterobacteriaceae - Identification of LYS228” (Bioorg Med Chem Lett, 2018)
≈ marks a conversion by molar mass, not a printed value.

Key:
[1] = test system: Escherichia coli; test: microbe, parasite or virus in culture
Description: Antimicrobial activity against wild type Escherichia coli by CLSI broth microdilution method

[2] = test system: Escherichia coli; test: microbe, parasite or virus in culture; remark: listed apart in the source
Description: Antimicrobial activity against Escherichia coli expressing beta-lactamase AmpC by CLSI broth microdilution method

[3] = test system: Escherichia coli; test: microbe, parasite or virus in culture; remark: listed apart in the source
Description: Antimicrobial activity against Escherichia coli expressing beta-lactamase VIM-1 by CLSI broth microdilution method

[4] = test system: Escherichia coli; test: microbe, parasite or virus in culture; remark: listed apart in the source
Description: Antimicrobial activity against Escherichia coli expressing beta-lactamase TEM-16 by CLSI broth microdilution method

[5] = test system: Escherichia coli; test: microbe, parasite or virus in culture; remark: listed apart in the source
Description: Antimicrobial activity against Escherichia coli expressing beta-lactamase SME-1 by CLSI broth microdilution method

[6] = test system: Escherichia coli; test: microbe, parasite or virus in culture; remark: listed apart in the source
Description: Antimicrobial activity against Escherichia coli expressing beta-lactamase Oxa-225 by CLSI broth microdilution method

[7] = test system: Escherichia coli; test: microbe, parasite or virus in culture; remark: listed apart in the source
Description: Antimicrobial activity against Escherichia coli expressing beta-lactamase TEM-121 by CLSI broth microdilution method

[8] = test system: Escherichia coli; test: microbe, parasite or virus in culture; remark: listed apart in the source
Description: Antimicrobial activity against Escherichia coli expressing beta-lactamase KPC-8 by CLSI broth microdilution method

[9] = test system: Escherichia coli; test: microbe, parasite or virus in culture; remark: listed apart in the source
Description: Antimicrobial activity against Escherichia coli expressing beta-lactamase P99 by CLSI broth microdilution method

[10] = test system: Escherichia coli; test: microbe, parasite or virus in culture; remark: listed apart in the source
Description: Antimicrobial activity against Escherichia coli expressing beta-lactamase SHV-12 by CLSI broth microdilution method

[11] = test system: Escherichia coli; test: microbe, parasite or virus in culture; remark: listed apart in the source
Description: Antimicrobial activity against Escherichia coli expressing beta-lactamase VEB-7 by CLSI broth microdilution method

[12] = test system: Escherichia coli; test: microbe, parasite or virus in culture; remark: listed apart in the source
Description: Antimicrobial activity against Escherichia coli expressing beta-lactamase Oxa-40 by CLSI broth microdilution method

[13] = test system: Escherichia coli; test: microbe, parasite or virus in culture; remark: listed apart in the source
Description: Antimicrobial activity against Escherichia coli expressing beta-lactamase TEM-47 by CLSI broth microdilution method

[14] = test system: Escherichia coli; test: microbe, parasite or virus in culture; remark: listed apart in the source
Description: Antimicrobial activity against Escherichia coli expressing beta-lactamase Oxa-146 by CLSI broth microdilution method

[15] = test system: Escherichia coli; test: microbe, parasite or virus in culture; remark: listed apart in the source
Description: Antimicrobial activity against Escherichia coli expressing beta-lactamase DHA by CLSI broth microdilution method

[16] = test system: Escherichia coli; test: microbe, parasite or virus in culture; remark: listed apart in the source
Description: Antimicrobial activity against Escherichia coli expressing beta-lactamase Oxa-48 by CLSI broth microdilution method

[17] = test system: Escherichia coli; test: microbe, parasite or virus in culture; remark: listed apart in the source
Description: Antimicrobial activity against Escherichia coli expressing beta-lactamase GES-1 by CLSI broth microdilution method

[18] = test system: Escherichia coli; test: microbe, parasite or virus in culture; remark: listed apart in the source
Description: Antimicrobial activity against Escherichia coli expressing beta-lactamase Oxa-23 by CLSI broth microdilution method

[19] = test system: Escherichia coli; test: microbe, parasite or virus in culture; remark: listed apart in the source
Description: Antimicrobial activity against Escherichia coli expressing beta-lactamase GIM-1 by CLSI broth microdilution method

[20] = test system: Escherichia coli; test: microbe, parasite or virus in culture; remark: listed apart in the source
Description: Antimicrobial activity against Escherichia coli expressing beta-lactamase VEB-4 by CLSI broth microdilution method

[21] = test system: Escherichia coli; test: microbe, parasite or virus in culture; remark: listed apart in the source
Description: Antimicrobial activity against Escherichia coli expressing beta-lactamase KPC-4 by CLSI broth microdilution method

[22] = test system: Escherichia coli; test: microbe, parasite or virus in culture; remark: listed apart in the source
Description: Antimicrobial activity against Escherichia coli expressing beta-lactamase CTXM-3 by CLSI broth microdilution method

[23] = test system: Escherichia coli; test: Antimicrobial activity against Escherichia coli expressing beta-lactamase NDM-1 by CLSI broth microdilution method; format: functional
[24] = test system: Escherichia coli; test: microbe, parasite or virus in culture; remark: listed apart in the source
Description: Antimicrobial activity against Escherichia coli expressing beta-lactamase PER-2 by CLSI broth microdilution method

[25] = test system: Escherichia coli; test: microbe, parasite or virus in culture; remark: listed apart in the source
Description: Antimicrobial activity against Escherichia coli expressing beta-lactamase PER-4 by CLSI broth microdilution method

[26] = test system: Escherichia coli; test: microbe, parasite or virus in culture; remark: listed apart in the source
Description: Antimicrobial activity against Escherichia coli expressing beta-lactamase TEM-10 by CLSI broth microdilution method

[27] = test system: Escherichia coli; test: Antimicrobial activity against Escherichia coli expressing beta-lactamase KPC-2 by CLSI broth microdilution method; format: functional
[28] = test system: Escherichia coli; test: microbe, parasite or virus in culture; remark: listed apart in the source
Description: Antimicrobial activity against Escherichia coli expressing beta-lactamase TEM-24 by CLSI broth microdilution method

[29] = test system: Escherichia coli; test: microbe, parasite or virus in culture; remark: listed apart in the source
Description: Antimicrobial activity against Escherichia coli expressing beta-lactamase SPM-1 by CLSI broth microdilution method

[30] = test system: Escherichia coli; test: microbe, parasite or virus in culture; remark: listed apart in the source
Description: Antimicrobial activity against Escherichia coli expressing beta-lactamase Oxa-160 by CLSI broth microdilution method

[31] = test system: Escherichia coli; test: microbe, parasite or virus in culture; remark: listed apart in the source
Description: Antimicrobial activity against Escherichia coli expressing beta-lactamase Oxa-10 by CLSI broth microdilution method

[32] = test system: Escherichia coli; test: microbe, parasite or virus in culture; remark: listed apart in the source
Description: Antimicrobial activity against Escherichia coli expressing beta-lactamase MIR-1 by CLSI broth microdilution method

[33] = test system: Escherichia coli; test: microbe, parasite or virus in culture; remark: listed apart in the source
Description: Antimicrobial activity against Escherichia coli expressing beta-lactamase PER-1 by CLSI broth microdilution method

[34] = test system: Escherichia coli; test: microbe, parasite or virus in culture; remark: listed apart in the source
Description: Antimicrobial activity against Escherichia coli expressing beta-lactamase Oxa-51 by CLSI broth microdilution method

[35] = test system: Escherichia coli; test: Antimicrobial activity against Escherichia coli expressing beta-lactamase NDM-5 by CLSI broth microdilution method; format: functional
[36] = test system: Escherichia coli; test: Antimicrobial activity against Escherichia coli expressing beta-lactamase TEM-1 by CLSI broth microdilution method; format: functional
[37] = test system: Escherichia coli; test: microbe, parasite or virus in culture; remark: listed apart in the source
Description: Antimicrobial activity against Escherichia coli expressing beta-lactamase Oxa-18 by CLSI broth microdilution method

[38] = test system: Escherichia coli; test: microbe, parasite or virus in culture; remark: listed apart in the source
Description: Antimicrobial activity against Escherichia coli expressing beta-lactamase IMI-1 by CLSI broth microdilution method

[39] = test system: Escherichia coli; test: microbe, parasite or virus in culture; remark: listed apart in the source
Description: Antimicrobial activity against Escherichia coli expressing beta-lactamase KPC-3 by CLSI broth microdilution method

[40] = test system: Escherichia coli; test: microbe, parasite or virus in culture; remark: listed apart in the source
Description: Antimicrobial activity against Escherichia coli expressing beta-lactamase CMY-2 by CLSI broth microdilution method

[41] = test system: Escherichia coli; test: microbe, parasite or virus in culture; remark: listed apart in the source
Description: Antimicrobial activity against Escherichia coli expressing beta-lactamase NMC-A by CLSI broth microdilution method

[42] = test system: Escherichia coli; test: Antimicrobial activity against Escherichia coli expressing beta-lactamase VEB-1 by CLSI broth microdilution method; format: functional
[43] = test system: Escherichia coli; test: microbe, parasite or virus in culture; remark: listed apart in the source
Description: Antimicrobial activity against Escherichia coli expressing beta-lactamase IMP-1 by CLSI broth microdilution method

[44] = test system: Escherichia coli; test: microbe, parasite or virus in culture; remark: listed apart in the source
Description: Antimicrobial activity against Escherichia coli expressing beta-lactamase CTXM-15 by CLSI broth microdilution method

[45] = test system: Escherichia coli; test: microbe, parasite or virus in culture; remark: listed apart in the source
Description: Antimicrobial activity against Escherichia coli expressing beta-lactamase Oxa-181 by CLSI broth microdilution method

[46] = Chemical stability in pH 7.4 potassium phosphate buffer assessed as half life for compound hydrolysis at 37 degC by UPLC and mass spectrometry; format: physicochemical

CC1(C)[C@H](NC(=O)/C(=N\OCc2cc(=O)c(O)cn2O)c2csc(N)n2)C(=O)N1OS(=O)(=O)O (stereo in doubt)
MIC [1]: 0.25 µg/mL (≈ 0.482 µM) | MIC [2]: 0.5 µg/mL (≈ 0.964 µM) | MIC [3]: ≤ 0.06 µg/mL | MIC [4]: 16 µg/mL (≈ 30.9 µM) | MIC [5]: 0.5 µg/mL (≈ 0.964 µM) | MIC [6]: 2 µg/mL (≈ 3.86 µM) | MIC [7]: 8 µg/mL (≈ 15.4 µM) | MIC [8]: 8 µg/mL (≈ 15.4 µM) | MIC [9]: 0.5 µg/mL (≈ 0.964 µM) | MIC [10]: > 32 µg/mL | MIC [11]: 2 µg/mL (≈ 3.86 µM) | MIC [12]: ≤ 0.03 µg/mL | MIC [13]: 2 µg/mL (≈ 3.86 µM) | MIC [14]: 2 µg/mL (≈ 3.86 µM) | MIC [15]: 0.25 µg/mL (≈ 0.482 µM) | MIC [16]: 0.125 µg/mL (≈ 0.241 µM) | MIC [17]: 0.25 µg/mL (≈ 0.482 µM) | MIC [18]: 0.06 µg/mL (≈ 0.116 µM) | MIC [19]: ≤ 0.06 µg/mL | MIC [20]: 8 µg/mL (≈ 15.4 µM) | MIC [21]: 32 µg/mL (≈ 61.7 µM) | MIC [22]: 0.25 µg/mL (≈ 0.482 µM) | MIC [23]: 0.25 µg/mL (≈ 0.482 µM) | MIC [24]: > 64 µg/mL | MIC [25]: 0.5 µg/mL (≈ 0.964 µM) | MIC [26]: > 64 µg/mL | MIC [27]: 0.5 µg/mL (≈ 0.964 µM) | MIC [28]: 16 µg/mL (≈ 30.9 µM) | MIC [29]: ≤ 0.06 µg/mL | MIC [30]: 8 µg/mL (≈ 15.4 µM) | MIC [31]: 0.125 µg/mL (≈ 0.241 µM) | MIC [32]: 2 µg/mL (≈ 3.86 µM) | MIC [33]: 16 µg/mL (≈ 30.9 µM) | MIC [34]: 0.06 µg/mL (≈ 0.116 µM) | MIC [35]: 0.125 µg/mL (≈ 0.241 µM) | MIC [36]: 0.5 µg/mL (≈ 0.964 µM) | MIC [37]: 16 µg/mL (≈ 30.9 µM) | MIC [38]: 0.25 µg/mL (≈ 0.482 µM) | MIC [39]: 0.5 µg/mL (≈ 0.964 µM) | MIC [40]: 0.25 µg/mL (≈ 0.482 µM) | MIC [41]: 0.25 µg/mL (≈ 0.482 µM) | MIC [42]: 16 µg/mL (≈ 30.9 µM) | MIC [43]: 0.25 µg/mL (≈ 0.482 µM) | MIC [44]: 1 µg/mL (≈ 1.93 µM) | MIC [45]: 0.125 µg/mL (≈ 0.241 µM)

CCN1CCN(C(=O)N[C@@H](C(=O)N[C@@H]2C(=O)N3[C@@H]2SC(C)(C)[C@@H]3C(=O)O)c2ccccc2)C(=O)C1=O [PIPERACILLIN]
MIC [1]: 4 µg/mL (≈ 7.73 µM) | MIC [2]: > 64 µg/mL | MIC [3]: > 64 µg/mL | MIC [4]: 64 µg/mL (≈ 124 µM) | MIC [5]: > 64 µg/mL | MIC [6]: > 64 µg/mL | MIC [7]: 64 µg/mL (≈ 124 µM) | MIC [8]: > 64 µg/mL | MIC [9]: 32 µg/mL (≈ 61.8 µM) | MIC [10]: > 64 µg/mL | MIC [11]: 32 µg/mL (≈ 61.8 µM) | MIC [12]: > 64 µg/mL | MIC [13]: 64 µg/mL (≈ 124 µM) | MIC [14]: > 64 µg/mL | MIC [15]: 64 µg/mL (≈ 124 µM) | MIC [16]: > 64 µg/mL | MIC [17]: > 64 µg/mL | MIC [18]: > 64 µg/mL | MIC [19]: > 64 µg/mL | MIC [20]: 8 µg/mL (≈ 15.5 µM) | MIC [21]: > 64 µg/mL | MIC [22]: > 64 µg/mL | MIC [23]: > 64 µg/mL | MIC [24]: > 64 µg/mL | MIC [25]: 8 µg/mL (≈ 15.5 µM) | MIC [26]: > 64 µg/mL | MIC [27]: > 64 µg/mL | MIC [28]: 16 µg/mL (≈ 30.9 µM) | MIC [29]: 64 µg/mL (≈ 124 µM) | MIC [30]: 64 µg/mL (≈ 124 µM) | MIC [31]: > 64 µg/mL | MIC [32]: 8 µg/mL (≈ 15.5 µM) | MIC [33]: 32 µg/mL (≈ 61.8 µM) | MIC [34]: 8 µg/mL (≈ 15.5 µM) | MIC [35]: > 64 µg/mL | MIC [36]: > 64 µg/mL | MIC [37]: > 64 µg/mL | MIC [38]: 64 µg/mL (≈ 124 µM) | MIC [39]: > 64 µg/mL | MIC [40]: 32 µg/mL (≈ 61.8 µM) | MIC [41]: 64 µg/mL (≈ 124 µM) | MIC [42]: 32 µg/mL (≈ 61.8 µM) | MIC [43]: 16 µg/mL (≈ 30.9 µM) | MIC [44]: > 64 µg/mL | MIC [45]: > 64 µg/mL

CC(C)(O/N=C(\C(=O)N[C@@H]1C(=O)N(S(=O)(=O)O)[C@@H]1CN1CCC1=O)c1csc(N)n1)C(=O)O (stereo in doubt)
MIC [1]: 2 µg/mL (≈ 3.96 µM) | MIC [2]: 64 µg/mL (≈ 127 µM) | half-life [46]: > 41.7 days | MIC [10]: 8 µg/mL (≈ 15.9 µM) | MIC [23]: 2 µg/mL (≈ 3.96 µM) | MIC [26]: 16 µg/mL (≈ 31.7 µM) | MIC [27]: 4 µg/mL (≈ 7.93 µM) | MIC [44]: 4 µg/mL (≈ 7.93 µM)

CC(C)(O/N=C(/C(=O)N[C@@H]1C(=O)N(S(=O)(=O)O)[C@@H]1CF)c1csc(N)n1)C(=O)O (stereo in doubt)
MIC [1]: 0.125 µg/mL (≈ 0.276 µM) | MIC [2]: 4 µg/mL (≈ 8.82 µM) | half-life [46]: 41.2 days | MIC [10]: 32 µg/mL (≈ 70.6 µM) | MIC [16]: 0.06 µg/mL (≈ 0.132 µM) | MIC [23]: 0.125 µg/mL (≈ 0.276 µM) | MIC [27]: 1 µg/mL (≈ 2.21 µM) | MIC [44]: 0.25 µg/mL (≈ 0.551 µM)

CC(C)(O/N=C(\C(=O)N[C@@H]1C(=O)N(S(=O)(=O)O)[C@@H]1CN1CCOC1=O)c1csc(N)n1)C(=O)O (stereo in doubt)
MIC [1]: 0.5 µg/mL (≈ 0.961 µM) | MIC [2]: 2 µg/mL (≈ 3.84 µM) | half-life [46]: 20.1 days | MIC [10]: 1 µg/mL (≈ 1.92 µM) | MIC [23]: 0.5 µg/mL (≈ 0.961 µM) | MIC [26]: 2 µg/mL (≈ 3.84 µM) | MIC [27]: 0.5 µg/mL (≈ 0.961 µM) | MIC [40]: 4 µg/mL (≈ 7.68 µM) | MIC [44]: 0.5 to 1 µg/mL (≈ 0.961 to 1.92 µM)

CC(C)(O/N=C(\C(=O)N[C@@H]1C(=O)N(S(=O)(=O)O)[C@@H]1CN1CCCC1=O)c1csc(N)n1)C(=O)O (stereo in doubt)
MIC [1]: 1 µg/mL (≈ 1.93 µM) | MIC [2]: 16 µg/mL (≈ 30.9 µM) | half-life [46]: > 41.7 days | MIC [10]: 2 µg/mL (≈ 3.86 µM) | MIC [23]: 1 µg/mL (≈ 1.93 µM) | MIC [26]: 4 µg/mL (≈ 7.71 µM) | MIC [27]: 2 µg/mL (≈ 3.86 µM) | MIC [44]: 2 µg/mL (≈ 3.86 µM)
